Measured values taken from article PMC3726336, “Product inhibition of cellulases studied with ^14C-labeled cellulose substrates” (Biotechnology for Biofuels, 2013).

Target: CtCel6A (Chaetomium thermophilum, UniProt G0SD43)
Test: Inhibition of hydrolysis of 14C-BMCC by CtCel6A
Type: biochemical
Settings: cellobiose; hydrolysis of 14C-BMCC by CtCel6A at 50°C
Excerpt: Here, we characterized the cellobiose and glucose inhibition of TrCel6A and its thermophilic counterpart, CtCel6A [9, 63]. First, the cellobiose inhibition of the synergistic hydrolysis of ^14C-BC by TrCel6A and TrCel5A was studied (Figure 7A). As TrCel6A was less sensitive to cellobiose inhibition than TrCel7A, the contribution of the cellobiose released during hydrolysis was not significant, and an average (DCB/DCB=0) over all time points was used in plotting (DCB/DCB=0) versus [cellobiose] (Figure 7D). No significant systematic variation of DCB/DCB=0 depending on hydrolysis time was observed. As in the case of GH7 CBHs, the IC50 value was found using Equations 5 and 6. Because the IC50 value for synergistic hydrolysis (Table 3) was of the same order as the apparent Ki value reported for TrCel5A [31], we further tested the inhibition of individual TrCel6A. BC is not a good substrate for TrCel6A, but its acid-treated derivative, BMCC, is readily degraded by the enzyme. Therefore, we prepared ^14C-BMCC by the heterogeneous acid hydrolysis of ^14C-BC. […]
GH6 CBHs were assessed by observing the hydrolysis of ^14C-BMCC. ^14C-BMCC (0.25 g l^-1) was incubated (with shaking at 350 rpm) with CBH (0.25 μM) and N188BG (0.06 μM) in 50 mM sodium acetate buffer, pH 5.0, containing BSA (0.1 g l^-1). […]

CtCel6A, sequence (G0SD43 entry or part of it): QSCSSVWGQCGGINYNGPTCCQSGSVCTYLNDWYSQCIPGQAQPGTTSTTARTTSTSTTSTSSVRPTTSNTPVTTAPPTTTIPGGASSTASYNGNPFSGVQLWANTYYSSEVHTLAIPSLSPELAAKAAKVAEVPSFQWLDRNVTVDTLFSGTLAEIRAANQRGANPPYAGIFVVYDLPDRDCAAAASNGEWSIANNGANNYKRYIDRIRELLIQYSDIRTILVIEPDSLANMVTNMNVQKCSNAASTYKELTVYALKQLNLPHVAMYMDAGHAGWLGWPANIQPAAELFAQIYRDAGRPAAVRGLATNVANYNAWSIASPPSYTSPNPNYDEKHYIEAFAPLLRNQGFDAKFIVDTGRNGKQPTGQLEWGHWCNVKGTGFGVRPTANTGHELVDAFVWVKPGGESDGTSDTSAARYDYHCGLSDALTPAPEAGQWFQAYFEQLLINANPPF

With `O=C[C@H](O)[C@@H](O)[C@H](O[C@@H]1O[C@H](CO)[C@@H](O)[C@H](O)[C@H]1O)[C@H](O)CO` [cellobiose, Cellobiose] the IC50 was 28 ± 4.5 mM.
